Test in all cases: inhibition of tumour cell growth, NCI panel, 48 h
The test system of assay [1] is DMS-273.
In assay [2] the test system is HOP-18.
In assay [3] the test system is SNB-78.
Assay [4] concerns M19-MEL.
The subject of assay [5] is KM-20L2.
In assay [6] the test system is DMS-114.
Assay [7] deals with LXFL 529.
For assay [8], the system named is XF498.
In assay [9] the test system is RXF 631.

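Compound exposure: 48 hours, 5 concentrations, 96-well plates. Abbreviation: GI50, concentration required for 50% inhibition of growth.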 Active and inactive are the calls of the source. No stated cut-off is given here; in the data, active = GI50 up to about 1.1 µM and inactive = higher.

On to `O=C(O)c1cc(S(=O)(=O)N/N=C\c2c3ccccc3[n+]([O-])c3ccccc23)ccc1O`, for which the GI50 was 7.16 µM (inactive) in [1]; 11.7 µM (inactive) in [2]; 20.6 µM (inactive) in [3]; 13.3 µM (inactive) in assay [4]; 13.3 µM (inactive) in [5]; 12.7 µM (inactive) in assay [6]. Also, the GI50 in [7] was 12.2 µM (inactive).
For the compound `COc1ccc(C(=O)C=C2NCCN2)cc1`, the GI50 in assay [1], in assay [2], in assay [3], in assay [4], in assay [5] and in assay [6] was > 100 µM (inactive) throughout. The GI50 in assay [7] is > 100 µM (inactive).
As for `C=CCOC(C)n1c(C)c(Br)c(=O)[nH]c1=O` (configuration not stated), the GI50 in assay [1], in [8], in [4], in assay [5], in assay [6] and in assay [7] was > 100 µM (inactive) in each case.
For `N#CC1(CCCCl)CCCCC1`, the GI50 in assay [1] was > 100 µM (inactive); in [2] it was 72.9 µM (inactive); in assay [3] it was > 100 µM (inactive); in assay [8], > 100 µM (inactive); in assay [4], > 100 µM (inactive); in assay [9], > 100 µM (inactive). For the same compound, the GI50 in [5], in assay [6] and in assay [7] was > 100 µM (inactive) each time.
For `CCOP(=O)(OCC)C(C(=O)OC)C(=O)C(=O)Nc1ccc(Cl)cc1Cl` (configuration not stated), the GI50 is > 100 µM (inactive) in assay [1]; 24 µM (inactive) in [2]; > 100 µM (inactive) in assay [3]; 3.78 µM (inactive) in [8]; > 100 µM (inactive) in assay [4]; > 100 µM (inactive) in [5]. The GI50 in assay [6] and in assay [7] was > 100 µM (inactive) each time.
In the case of `CC(=O)OCC1OC(OC2CC3C(C)(C)C(O)CC[C@]3(C)C3CCC45CC4(CC[C@H]5C(C)CC(O)C4OC4(C)C)[C@]23C)C(O)C(O)C1O` (some centres not stated), the GI50 in [1] was 8 µM (inactive); in assay [2], 7.08 µM (inactive); in assay [8] it was 4.13 µM (inactive); in assay [4], 4.27 µM (inactive); in assay [5], 8.13 µM (inactive); in assay [6], 5.21 µM (inactive). Also, in [7], the GI50 is 5.83 µM (inactive).
As to `NC(CCCNCc1ccccc1)C(=O)O` (configuration not stated), the GI50 in [1], in assay [2], in [4], in assay [9], in assay [5] and in [6] was > 100 µM (inactive) throughout. Moreover, the GI50 in assay [7] is > 100 µM (inactive).
Consider `O=C1c2ccccc2C(=O)C1C(c1ccc(F)cc1)C1C(=O)c2ccccc2C1=O`, for which the GI50 in assay [1] was > 100 µM (inactive); in assay [2] it was > 100 µM (inactive); in assay [3], > 100 µM (inactive); in assay [8] it was > 100 µM (inactive); in assay [4], 61 µM (inactive); in assay [9], > 100 µM (inactive). In addition, the GI50 in assay [5], in assay [6] and in assay [7] was > 100 µM (inactive) each time.
Take `CC1=Nn2c(nnc2-c2ccc(N)cc2)NC(C)(C)C1`: the GI50 in [1], in assay [2], in assay [3], in assay [8], in [4] and in assay [9] was > 100 µM (inactive) throughout. The GI50 in assay [5], in [6] and in assay [7] was > 100 µM (inactive) throughout.
`CCCCCCCCCCn1cccc1/C=C/c1ccc(/C=C/c2cccn2CCCCCCCCCC)cc1`: the GI50 in assay [1], in [2], in [3], in assay [8], in assay [4] and in [5] was > 100 µM (inactive) throughout. Further, the GI50 in assay [6] and in [7] was > 100 µM (inactive) each time.
With `COc1ccc(Nc2nc3cc(C(F)(F)F)ccc3nc2-c2ccccc2)cc1OC`, the GI50 in assay [1] is 6.08 µM (inactive); in assay [2], < 0.01 µM (active); in assay [3], 25.4 µM (inactive); in [8] it was 1.71 µM (inactive); in [6] it was 10.3 µM (inactive); in assay [7], 49 µM (inactive).
For `Cc1cc(C)nc(NS(=O)(=O)c2ccc(Nc3c4ccccc4nc4c(C(=O)Nc5ccc(S(=O)(=O)Nc6cc(C)on6)cc5)ccc(Cl)c34)cc2)n1`, the GI50 in [3] is 29.2 µM (inactive); in assay [8], 18.7 µM (inactive); in [4], 37.9 µM (inactive); in [9], 20.7 µM (inactive); in [5], 19.5 µM (inactive); in assay [7], 18.5 µM (inactive).
Regarding `N#CC1(N2CCCC2)CCC2(CC1)OCCO2`, the GI50 in [1] was > 10 µM (inactive); in [3] it was > 100 µM (inactive); in assay [4], > 10 µM (inactive); in [5] it was > 100 µM (inactive); in assay [6], > 100 µM (inactive).
In the case of `O=C(O)CCNCCCCNCCC(=O)O`, the GI50 in [1], in assay [2], in assay [8], in [5] and in [7] was > 100 µM (inactive) throughout.
In the case of `N#C/C(=C\c1cc(O)ccc1O)C(N)=O`, the GI50 in assay [1] is 47.3 µM (inactive); in assay [3], 25.6 µM (inactive); in assay [8] it was 65.3 µM (inactive); in [4] it was 51.3 µM (inactive); in [9] it was 58.1 µM (inactive); in assay [5], 46.8 µM (inactive). The GI50 in assay [6] is 24.8 µM (inactive); in assay [7] it was 35.6 µM (inactive).
In the case of `CCc1ccc(Cc2ccc(CC)c(NC(=O)C(=O)Cc3nc4ccccc4nc3C)c2CC)c(CC)c1NC(=O)C(=O)Cc1nc2ccccc2nc1C`, the GI50 was 76.2 µM (inactive) in assay [3]; > 100 µM (inactive) in assay [4]; 84.9 µM (inactive) in [9]; > 100 µM (inactive) in assay [5]; 47.5 µM (inactive) in assay [6]; 54.1 µM (inactive) in assay [7].
As for `CCOC1=C2N=C(Cc3ccccc3F)N=C2C(=O)c2ccccc21`, the GI50 in assay [1], in assay [2], in assay [8], in assay [4], in assay [5] and in assay [6] was > 100 µM (inactive) each time. The GI50 in assay [7] is > 100 µM (inactive).
For `Cc1ccc(NC(=O)NC(=O)c2ccc([N+](=O)[O-])cc2[N+](=O)[O-])cc1Oc1ncc(Cl)cn1`, the GI50 in assay [1] was 0.318 µM (active); in assay [2], 10.3 µM (inactive); in [3] it was 0.346 µM (active); in [8], 0.843 µM (active); in assay [4], 0.741 µM (active); in assay [5], 0.234 µM (active). Further, the figures for the GI50 in [6] and in [7] were 0.484 µM (active) and 0.36 µM (active), respectively.
As for `COc1ccc(C=C(c2ccc(OCc3ccccc3)cc2)c2ccc(OCc3ccccc3)cc2)cc1`, the GI50 in [1], in assay [2], in [3], in [8], in assay [4] and in assay [9] was > 100 µM (inactive) in each case. Further, the GI50 in assay [5], in [6] and in [7] was > 100 µM (inactive) in each case.
In the case of `O=C(Nc1cc(Cl)c(Cl)cc1Cl)C(=O)C(C(=O)c1ccccc1)C1OC(=O)c2ccccc21` (configuration not stated), the GI50 is > 100 µM (inactive) in [1]; 38.3 µM (inactive) in assay [2]; > 100 µM (inactive) in [3]; > 100 µM (inactive) in assay [8]; > 100 µM (inactive) in [4]; > 100 µM (inactive) in assay [9]. The GI50 in assay [5], in [6] and in assay [7] was > 100 µM (inactive) in each case.
With `CCOC(=O)C(Cc1ccccc1)NC(=O)c1nc[nH]c1/N=N/N(C)C` (configuration not stated), the GI50 in [1], in [4], in [6] and in assay [7] was > 100 µM (inactive) throughout.
As for `O=C1CCCCC12CCC/C2=N\O` (configuration not stated), the GI50 in assay [1], in [2], in assay [3], in [4], in assay [9] and in [5] was > 100 µM (inactive) throughout. In addition, the GI50 in assay [6] and in assay [7] was > 100 µM (inactive) each time.
Consider `Cc1c2ccncc2c(C)c2c1[nH]c1ccc(OC(C)(C)C)cc12`, for which the GI50 in assay [1] was 1.86 µM (inactive); in assay [3], 2.41 µM (inactive); in assay [8], 1.93 µM (inactive); in assay [4] it was 2.14 µM (inactive); in assay [9], 2.45 µM (inactive); in assay [5] it was 1.78 µM (inactive). In addition, the GI50 in assay [6] was 2.02 µM (inactive); in assay [7] it was 2.23 µM (inactive).
As for `Clc1ccc(C2SCc3nc4ccccc4n32)c(Cl)c1` (configuration not stated), the GI50 in assay [2] was 19.5 µM (inactive); in [8], 19.1 µM (inactive); in assay [4] it was 14.8 µM (inactive); in assay [5], 21.4 µM (inactive); in [6], 8.3 µM (inactive); in [7] it was 11.9 µM (inactive).

Values taken from ChEMBL document CHEMBL1201862, “PubChem BioAssay data set” (2004).
